Assays:
[1] = test system: reconstructed human epidermis (RHE); experiment: In vitro dermal irritation screening in reconstructed human epidermis; type: cell-based; details: concentration 0.03%, Formulation A vehicle
Method: In vitro irritation screening assays were conducted for compounds described herein. Test system was the reconstructed human epidermis (RHE), as known in the art. Single dosing was employed, and endpoints were evaluated as a function of time up to 24-hrs. Endpoints were tissue viability and IL-1α release.
Test compounds included Cmpds IVa (0.03%), IIIb (0.03%), IVb (0.03%), bimatoprost (0.03%), minoxidil (5%, foam), and minoxidil (5%, solution). Administration of Cmpds IVa, IIIb, IVb and bimatoprost employed the vehicle of Formulation A. See Table 1 above. Administration of minoxidil employed minoxidil vehicle with formulation 20% H2O, 50% propylene glycol, and 30% ethanol.

[2] = Dermal tolerability in rats; type: in vivo; details: female rats
Method: Female rats were administered either vehicle or one of Cmpds IVa, IIIb, or IVb daily for 8 days. The administered dose was 3 mg/kg/day, at a concentration of 3 mg/mL. Observed data were body weight, viability, food consumption, and dermal observation (skin reaction grading), as known in the art. The vehicle was Formulation A. See Table 1 above.

C57Black/6J mice = experiment: Piliation (hair regrowth) studies in mice; type: in vivo; details: mouse hair regrowth
Method: C57Black/6J, 7-week old female mice (n=10) were employed in piliation studies. Dorsal hair was shaved (area ˜2 cm×4 cm). Dosing of active agent was once per day (QD) by topical administration for 14 days. Observations were conducted for 42-days to determine onset of new hair growth and day of hair growth completion. Compounds were formulated as either a) 50% propylene glycol, 30% ethanol, 20% water, or b) the formulation of Formulation A described above. The experiments reported for FIGS. 4A-4B, 5A-5B, 6A-6B, 8A-8B, and 9A-9B were conducted using a vehicle with formulation of 50% propylene glycol, 30% ethanol, 20% water. The experiments reported for FIGS. 7A-7B were conducted using a vehicle of Formulation A described above.
For each of FIGS. 4A, 5A, 6A, 7A, 8A and 9A, the histograms depict the day of onset of hair growth. For each of FIGS. 4B, 5B, 6B, 7B, 8B and 9B, the histograms depict the day achieving full hair growth.

[3] = Pharmacokinetic assessment of mouse hair regrowth model; type: in vivo; details: mice, 0.03% dermal daily ~60 uL, all measured time points, LC/MS-MS
Method: Female C57BL/6J mice (n=2) were assayed per time point per treatment group. Treatment groups: (1) vehicle; (2) 0.03% Cmpd IVa; (3) 0.03% Cmpd IIIb; (4) 0.03% Cmpd IVb; (5) 0.03% bimatoprost. Treatment dosing: dermal daily application of ˜60 uL test compound solution. Blood and skin pharmacokinetic time points were obtained at day 1 (1, 4, 8 and 24-hrs post-dose); day 2 (24-hrs post-dose); day 14 (24-hrs post-dose); and day 42 (28 days post day 14 dose). Bioanalysis employed LC/MS-MS.

[4] = Partitioning in artificial sebum; type: physicochemical
Method: Compounds bimatoprost, Cmpd IVa, and Cmpd IIIb were added to aqueous solution (1 mL, 2-20 ug/mL), with and without 1-20 mg artificial sebum. Samples were shaken for 16 hr at 37° C. Samples were then centrifuged (8000 RPM) for 15 min at room temperature, prior to collection of the aqueous solution. Samples were analyzed for concentration of compound without artificial sebum (i.e., Co) and with artificial sebum (i.e., Ci) by mass spectroscopy. Artificial sebum and water partition coefficient (Ksebum) was expressed as the concentration of drug in 1 g of artificial sebum divided by the concentration of drug in 1 g of aqueous solution, and was calculated as Ksebum=(Co−Ci)Waqueous/(Ci×Wsebum) (Eqn. 1), where W represents weight.
Artificial sebum was prepared as follows: 15% (w/w) squalene, 15% spermaceti, 10% coconut oil, 1.5% oleic acid, 5% palmitic acid, 2.4% cholesterol oleate, 10% paraffin wax, 10% olive oil, 25% cottonseed oil, 5% palmitoleic acid, 1.2% cholesterol. The melting point of the semi-liquid was 37° C.

[5] = Compound distribution in mouse skin by MALDI-MS imaging; type: in vivo
Method: In order to determine the penetration, accumulation and/or differential distribution of bimatoprost and compounds disclosed herein upon dermal administration, MALDI-MS (matrix assisted laser desorption ionization mass spectroscopy) imaging was conducted on explanted samples of mouse skin after topical dermal administration.
MALDI-MS imaging was conducted on mouse skin strips after administration of bimatoprost or compound disclosed herein once daily for 3 days. Samples of mouse skin were recovered 4 hr after day-3 dosing of compound. Dermal administration was conducted with vehicle, 0.03% bimatoprost, 3% bimatoprost, 0.03% Cmpd IVa, and 3% Cmpd IVa.
FIG. 16A depicts a typical explanted sample of mouse skin for these studies, wherein Cmpd IVa was applied via dermal administration. FIG. 16B depicts the result of MALDI-MS imaging. The intensity of each pixel within FIG. 16B reflects the concentration of Cmpd IVa at the corresponding point in the image depicted in FIG. 16A. FIG. 16C depicts a representative mass spectrum, corresponding to the region of FIG. 16B indicated by the white circle within FIG. 16B. Accordingly, each pixel of the image of FIG. 16B has an associated mass spectrum, providing the amounts of bimatoprost or other administered compound or metabolite thereof.

[6] = dermal 3 mg/kg/day daily for 8 days, Formulation A

CCNC(=O)CCC/C=C\C[C@@H]1[C@@H](/C=C/[C@H](CCc2ccccc2)OC(C)=O)[C@H](O)C[C@@H]1O [Cmpd IVa, 15-acetyl-bimatoprost]
potential for irritation of the human skin [1]: no indication of potential for irritation | change in food consumption and body weight gain (in words) ([2]; 3 mg/kg/day daily for 8 days): no significant change in food consumption or body weight gain | dermal observation: signs of irritation ([2]; 3 mg/kg/day, days 2-4): minimal and transient signs of irritation | Body Weight Gain (g) Mean ± SD [2, 6]: 9.0 ± 3.0 g | Food Consumption (g) Mean ± SD [2, 6]: 21.14 ± 1.08 g | effectiveness of 0.03% compound compared to 0.1% to 0.3% bimatoprost (C57Black/6J mice): approximately equally effective | pharmacological efficacy relative to bimatoprost (C57Black/6J mice; vehicle 50% propylene glycol, 30% ethanol, 20% water): efficacy greater than bimatoprost | pharmacological efficacy relative to bimatoprost (C57Black/6J mice; vehicle Formulation A): efficacy greater than bimatoprost | level in the systemic circulation [3]: most undetectable | phase in which the majority of compound remains ([4]; artificial sebum / aqueous solution): remain in the aqueous phase | Ave. Ksebum (artificial sebum and water partition coefficient) ([4]; n = 4, 16 hr at 37° C.): 5.1 | detectability in mouse skin by MALDI-MS imaging ([5]; after topical dermal administration at 0.03%): detectable | skin penetration of 3.0% compound compared with 3.0% bimatoprost ([5]; topical dermal administration, MALDI-MS): similar

From patent US20130324606A1, “Ester Derivatives of Bimatoprost Compositions and Methods” (ALLERGAN, INC., priority 2011, published 2013)
